Data on six molecules can be found in patent US11739064B2, “HDAC inhibitors and therapeutic methods using the same” (THE BOARD OF TRUSTEES OF THE UNIVERSITY OF ILLINOIS, priority 2015, dated 2023).

In test [1] the test system is L3.6pl pancreatic cancer cells. As to the kind of experiment: Apoptosis by Hoechst staining and PARP cleavage. The test is classed as cell-based. As to conditions: 10 μM, 24 hours after the initiation of treatment. Here is the method: FIG. 3 contains photographs and Western immunoblots showing that HDAC inhibitors of present invention induce apoptosis on L3.6p1 pancreatic cancer cells. L3.6p1 pancreatic cancer cells were treated with 10 μM of compound 1, 2 or 4 for 24 hrs as indicated. Cells were collected and processed to Hoechst staining (upper panel) and cell lysates were prepared for Western immunoblotting (lower panel). 50 μg of proteins were separated by SDS-PAGE, transferred to PVDF membrane, and immunoblotted as indicated.

Test [2] concerns the target T1, Human HDAC6 (Homo sapiens, UniProt Q9UBN7).
T1 construct: Full length with N-terminal GST tag, MW=159 kDa; GST (N); host or cells: baculovirus expression system, Sf9 cells
T1 sequence (Q9UBN7 1-1215): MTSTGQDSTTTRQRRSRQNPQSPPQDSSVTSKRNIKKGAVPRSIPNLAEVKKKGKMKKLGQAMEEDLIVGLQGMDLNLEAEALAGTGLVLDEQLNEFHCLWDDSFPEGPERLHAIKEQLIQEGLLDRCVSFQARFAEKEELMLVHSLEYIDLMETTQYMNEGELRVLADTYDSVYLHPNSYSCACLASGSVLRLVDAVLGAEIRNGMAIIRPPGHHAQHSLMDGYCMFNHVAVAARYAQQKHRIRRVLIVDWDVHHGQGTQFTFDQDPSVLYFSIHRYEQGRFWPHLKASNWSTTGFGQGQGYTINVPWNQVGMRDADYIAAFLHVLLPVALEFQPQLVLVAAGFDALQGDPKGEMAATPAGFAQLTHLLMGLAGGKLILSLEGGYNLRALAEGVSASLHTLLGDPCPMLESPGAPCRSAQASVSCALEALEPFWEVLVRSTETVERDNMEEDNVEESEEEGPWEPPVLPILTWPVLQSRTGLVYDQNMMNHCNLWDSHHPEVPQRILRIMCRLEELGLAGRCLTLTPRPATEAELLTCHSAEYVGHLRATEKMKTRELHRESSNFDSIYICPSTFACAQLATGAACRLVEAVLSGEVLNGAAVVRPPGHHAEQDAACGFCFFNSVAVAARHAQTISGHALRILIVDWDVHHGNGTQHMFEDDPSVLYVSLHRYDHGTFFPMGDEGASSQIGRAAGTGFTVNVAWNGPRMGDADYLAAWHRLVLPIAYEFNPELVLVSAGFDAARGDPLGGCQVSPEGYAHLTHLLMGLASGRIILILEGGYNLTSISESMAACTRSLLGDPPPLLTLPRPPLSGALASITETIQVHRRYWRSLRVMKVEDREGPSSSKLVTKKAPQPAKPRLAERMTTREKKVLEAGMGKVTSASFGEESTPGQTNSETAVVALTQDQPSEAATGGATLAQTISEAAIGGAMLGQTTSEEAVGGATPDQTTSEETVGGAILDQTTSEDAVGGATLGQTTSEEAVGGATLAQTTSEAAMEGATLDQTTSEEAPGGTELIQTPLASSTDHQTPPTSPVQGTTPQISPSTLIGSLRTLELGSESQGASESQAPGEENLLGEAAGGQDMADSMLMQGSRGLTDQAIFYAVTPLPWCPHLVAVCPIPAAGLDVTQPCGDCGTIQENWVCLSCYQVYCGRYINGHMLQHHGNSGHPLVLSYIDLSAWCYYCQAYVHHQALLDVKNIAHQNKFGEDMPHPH
As to the kind of experiment: In vitro HDAC inhibition assay, HDAC6. The test is classed as biochemical. As to conditions: read-out: HDAC isoform IC50, HDAC6.

Test [3] concerns the target HDAC3/NcoR2 complex (Homo sapiens, UniProt O15379). Nature of the test: In vitro HDAC inhibition assay, HDAC3. It counts as biochemical. The following applies: NI = No inhibition at a concentration of 50 pM (footnote b); read-out: HDAC isoform IC50, HDAC3.
Test [4] addresses T2, HDAC10 (Homo sapiens, UniProt Q969S8).
T2 sequence (Q969S8 1-669): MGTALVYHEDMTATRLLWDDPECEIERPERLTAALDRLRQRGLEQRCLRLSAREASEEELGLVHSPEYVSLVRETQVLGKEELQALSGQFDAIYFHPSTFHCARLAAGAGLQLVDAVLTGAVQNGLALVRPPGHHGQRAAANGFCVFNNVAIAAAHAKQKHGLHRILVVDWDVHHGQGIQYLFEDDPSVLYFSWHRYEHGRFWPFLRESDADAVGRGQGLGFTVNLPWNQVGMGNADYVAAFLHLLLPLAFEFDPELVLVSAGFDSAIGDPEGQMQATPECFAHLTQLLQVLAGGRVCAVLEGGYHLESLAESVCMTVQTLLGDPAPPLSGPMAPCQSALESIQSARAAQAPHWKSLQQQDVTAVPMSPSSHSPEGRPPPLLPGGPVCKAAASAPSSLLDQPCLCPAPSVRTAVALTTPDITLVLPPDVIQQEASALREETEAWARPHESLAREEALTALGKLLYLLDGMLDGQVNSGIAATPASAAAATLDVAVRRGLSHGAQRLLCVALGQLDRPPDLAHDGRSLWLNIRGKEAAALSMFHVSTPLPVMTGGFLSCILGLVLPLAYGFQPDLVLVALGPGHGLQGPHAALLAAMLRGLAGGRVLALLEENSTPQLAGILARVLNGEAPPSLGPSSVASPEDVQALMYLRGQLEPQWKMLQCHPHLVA
As to the kind of experiment: In vitro HDAC inhibition assay, HDAC10. It counts as biochemical. The following applies: NI = No inhibition at a concentration of 50 pM (footnote b); read-out: HDAC isoform IC50, HDAC10.

Test [5] concerns L3.6pl. Nature of the test: In vitro growth inhibition (GI), MTS cell proliferation assay (Table 5), L3.6pl. The test is classed as cell-based. The following applies: Homo sapiens, 72 hours post-treatment.
The target in test [6] is Human HDAC1 (Homo sapiens, UniProt Q13547). Nature of the test: In vitro HDAC inhibition assay, HDAC1. The following applies: read-out: HDAC isoform IC50, HDAC1; NI = No inhibition at a concentration of 50 pM (footnote b).
Test [7] relates to BxPC3. Nature of the test: In vitro growth inhibition (GI), MTS cell proliferation assay (Table 5), BxPC3. It counts as cell-based. As to conditions: Homo sapiens, BXPC-3, 72 hours post-treatment.
In test [8] the target is HDAC2 (Homo sapiens, UniProt Q92769). As to the kind of experiment: In vitro HDAC inhibition assay, HDAC2. It counts as biochemical. As to conditions: NI = No inhibition at a concentration of 50 pM (footnote b); read-out: HDAC isoform IC50, HDAC2.
The subject of test [9] is BxPC-3. As to the kind of experiment: In vitro growth inhibition of pancreatic cancer cell lines (Table 3), BxPC-3. The test is classed as cell-based. The following applies: Homo sapiens, 72 hours post-treatment, cell viability. Here is the method:
In Vitro growth inhibition of pancreatic cancer cell lines. Four of the present HDACIs were analyzed in the [3-(4,5-dimethylthiazol-2-yl)]-2,5-diphenyltetrazolium bromide (MTT) assay in four pancreatic cancer cell lines (Table 3).

For test [10], the system named is acetylated alpha-tubulin. Nature of the test: Accumulation of acetylated alpha-tubulin in pancreatic cancer cells. As to conditions: FIG. 1A. The test is classed as cell-based. The text has this: Cell cycle and inhibition of alpha-tubulin deacetylation.
For test [11], the system named is PANC1 cells. As to the kind of experiment: Scratch-wound cell migration assay. It counts as cell-based. The following applies: for Inhibition of cell migration, 24 h: PANC1, 24 h post wounding; for Inhibition of cell migration, 48 h: PANC1, 48 h post wounding. The arrangement: key to Inhibition of cell migration, 24 h / Inhibition of cell migration, 48 h: Level of inhibition (high to low): +++, ++ or +; Level of inhibition (high to low): +++, ++ or +; Level of inhibition (high to low): +++, ++ or +; no inhibition: −. On the procedure: FIG. 2 contains photographs of PANC1 cells treated with present compounds 9 and 6 taken 24 and 48 hours (post wounding) after a scratch was made through a confluent layer of cells; and
PANC1 Cell migration and effect on T and NK Cells. The effect of HDAC6 inhibition on cell migration and cellular cytotoxicity was evaluated. […] Thus, these HDAC6-selective inhibitors could function well to block metastasis. However, in contrast to the effect observed on cell migration, none of the compounds tested affected CD8+ T cell or natural killer (NK) cell-mediated cytotoxicity, despite the ability of the compounds to substantially increase the levels of acetyl-tubulin in these cell lines.

Test [12] concerns PANC1 cells. As to the kind of experiment: Cell cycle analysis. The test is classed as cell-based. As to conditions: FIG. 1B, accumulation in the G2/M phase. The text has this:
This finding is consistent with cell cycle data, which indicate that treatment of pancreatic cancer cells with a present HDACIs results in an accumulation of cells in the G2/M phase of the cell cycle.

HDAC3/NcoR2 complex, sequence (O15379 whole entry, canonical isoform): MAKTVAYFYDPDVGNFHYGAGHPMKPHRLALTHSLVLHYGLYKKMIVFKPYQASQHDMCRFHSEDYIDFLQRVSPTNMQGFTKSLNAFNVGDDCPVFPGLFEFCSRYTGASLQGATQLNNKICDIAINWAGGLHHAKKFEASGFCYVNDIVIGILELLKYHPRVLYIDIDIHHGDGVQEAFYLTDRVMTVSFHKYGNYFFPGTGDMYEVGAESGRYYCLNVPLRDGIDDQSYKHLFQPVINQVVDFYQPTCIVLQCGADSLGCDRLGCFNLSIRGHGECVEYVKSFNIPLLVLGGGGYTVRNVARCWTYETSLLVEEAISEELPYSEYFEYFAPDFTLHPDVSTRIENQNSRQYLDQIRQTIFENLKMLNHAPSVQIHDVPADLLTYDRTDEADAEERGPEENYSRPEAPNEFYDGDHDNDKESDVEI
HDAC3/NcoR2 complex, sequence (Q9Y618 395-489 partner limits assumed): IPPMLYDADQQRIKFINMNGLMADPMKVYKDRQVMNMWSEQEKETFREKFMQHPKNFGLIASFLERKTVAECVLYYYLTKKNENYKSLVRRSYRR
Human HDAC1, sequence (Q13547 whole entry, canonical isoform): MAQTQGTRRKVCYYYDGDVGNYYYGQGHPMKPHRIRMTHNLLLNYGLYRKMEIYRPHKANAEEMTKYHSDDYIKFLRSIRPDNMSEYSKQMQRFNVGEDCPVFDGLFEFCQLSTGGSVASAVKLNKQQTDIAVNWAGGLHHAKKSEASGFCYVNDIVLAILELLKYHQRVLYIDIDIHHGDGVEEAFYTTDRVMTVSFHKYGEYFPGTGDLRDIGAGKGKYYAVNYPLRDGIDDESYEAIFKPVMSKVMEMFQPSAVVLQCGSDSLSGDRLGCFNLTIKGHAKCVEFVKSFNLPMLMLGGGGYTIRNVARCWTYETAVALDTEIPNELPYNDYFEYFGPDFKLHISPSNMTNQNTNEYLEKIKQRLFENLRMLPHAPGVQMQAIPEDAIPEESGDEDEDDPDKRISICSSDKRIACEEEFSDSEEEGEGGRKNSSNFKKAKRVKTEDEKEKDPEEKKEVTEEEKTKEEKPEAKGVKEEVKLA
HDAC2, sequence (Q92769 whole entry, canonical isoform): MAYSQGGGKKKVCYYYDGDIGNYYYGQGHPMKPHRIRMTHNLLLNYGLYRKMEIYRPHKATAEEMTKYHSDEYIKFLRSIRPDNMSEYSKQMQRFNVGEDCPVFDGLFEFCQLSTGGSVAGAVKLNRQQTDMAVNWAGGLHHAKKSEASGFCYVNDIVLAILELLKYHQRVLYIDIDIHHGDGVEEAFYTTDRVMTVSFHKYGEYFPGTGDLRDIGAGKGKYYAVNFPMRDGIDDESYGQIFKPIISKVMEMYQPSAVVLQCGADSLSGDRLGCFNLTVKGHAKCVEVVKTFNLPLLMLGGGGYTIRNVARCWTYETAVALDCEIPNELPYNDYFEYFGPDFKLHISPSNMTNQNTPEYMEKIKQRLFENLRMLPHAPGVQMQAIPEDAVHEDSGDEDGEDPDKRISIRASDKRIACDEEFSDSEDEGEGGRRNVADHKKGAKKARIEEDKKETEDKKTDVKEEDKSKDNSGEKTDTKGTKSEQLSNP

As a reminder, the IC50 is the point on the concentration scale where inhibition reaches its midpoint. As usually defined, the GI50 is the concentration that inhibits growth by half. As to `O=C(CCc1cc(C(=O)NO)no1)Nc1nc(-c2ccccc2)cs1` [Compound 1, 5-[2-(4-Phenyl-thiazol-2-ylcarbamoyl)-ethyl]-isoxazole-3-carboxylic acid hydroxyl amide], the “Induction of apoptosis (Hoechst staining and PARP cleavage)” value in [1] is recorded as “effectively induced apoptosis”. The IC50 was 0.031 µM in test [2]; 0.32 µM in test [3]; 0.407 µM in [4]; 0.307 µM in [6]; 1.14 µM in test [8]; 1 µM in test [9]. Also, the values for the concentration for 50% growth inhibition (GI50) in test [5] and in [7] were 1.3 µM and 1.5 µM, respectively.
Take `Nc1cccc(-c2cc(C(=O)NCCc3cc(C(=O)NO)no3)no2)c1` [Compound 9, 5-(2-{[5-(3-Amino-phenyl)-isoxazole-3-carbonyl]-amino}-ethyl)-isoxazole-3-carboxylic acid hydroxyamide]: the half-maximal inhibitory concentration (IC50) in test [2] was 0.0168 µM; in test [3] it was 1.77 µM; in test [4], 5.29 µM; in [6], 6.68 µM; in [8] it was 2.36 µM. Besides, the GI50 was found to be 3.3 µM in [5] and 12 µM in test [7]. Moreover, in [10], the “Accumulation of acetylated alpha-tubulin” value was “accumulation of acetylated alpha-tubulin”. For the same molecule, the “Inhibition of cell migration, 24 h” value in test [11] was “+”. Further, in test [11], the “Inhibition of cell migration, 48 h” value is on record as “−”. In test [11] (compared to diluent-treated control cells), the “Effect on PANC1 cell migration” value is on record as “partial effect”.
Turning to `O=C(Nc1cccc(-c2cc(C(=O)NCCc3cc(C(=O)NO)no3)no2)c1)c1ccccc1` [Compound 12], the IC50 in [2] is 0.0044 µM; in test [3], 7.05 µM; in [4], 4.63 µM; in test [6], 2.93 µM; in test [8] it was 10.4 µM. Also, the 50% growth inhibitory concentration (GI50) in test [5] and in [7] was more than 50 µM in each case. Moreover, in test [10], the “Accumulation of acetylated alpha-tubulin” value is “accumulation of acetylated alpha-tubulin”. The “Inhibition of cell migration, 24 h” value in [11] was “−”. The “Inhibition of cell migration, 48 h” value in test [11] is recorded as “−”.
Turning to `CC(C)(C)OC(=O)Nc1cccc(-c2cc(C(=O)NCc3ccc(C(=O)NO)cc3)no2)c1` [Compound 14, {3-[3-(4-Hydroxycarbamoyl-benzylcarbamoyl)-isoxazol-5-yl]-phenyl}-carbamic acid tert-butyl ester], the half-maximal inhibitory concentration (IC50) was found to be 0.00064 µM in [2]; 0.789 µM in [3]; 2.73 µM in test [4]; 0.444 µM in test [6]; 1.38 µM in test [8]. Besides, the Cell cycle arrest result in test [12] was “cell cycle arrest”. Also, the GI50 was more than 50 µM in [5] and 7.8 µM in test [7]. Besides, the “Accumulation of acetylated alpha-tubulin” value in test [10] is given as “accumulation of acetylated alpha-tubulin”. Also, the “Inhibition of cell migration, 24 h” value in test [11] was “−”. In addition, the “Inhibition of cell migration, 48 h” value in [11] was “−”.
As for `CC(C)(C)OC(=O)Nc1ccc(-c2cc(C(=O)NCc3ccc(C(=O)NO)cc3)no2)cc1` [Compound 15, {4-[3-(4-Hydroxycarbamoyl-benzylcarbamoyl)-isoxazol-5-yl]-phenyl}-carbamic acid tert-butyl ester], the 50% inhibitory concentration (IC50) in test [2] stood at 0.00033 µM; in test [3] it was 0.135 µM; in test [4], 3.16 µM; in test [6] it was 0.436 µM; in test [8] it was 1.9 µM. In test [12], the Cell cycle arrest entry is “cell cycle arrest”. In addition, the 50% growth inhibitory concentration (GI50) in test [5] was 2 µM; in test [7], 8.1 µM. Besides, the “Accumulation of acetylated alpha-tubulin” value in test [10] was “accumulation of acetylated alpha-tubulin”.
As for `O=C(NO)c1ccc(CNC(=O)c2cc(Cn3c4ccccc4c4ccccc43)on2)cc1` [Compound 18, 5-Carbazol-9-ylmethyl-isoxazole-3-carboxylic acid 4-hydroxycarbamoyl-benzylamide], the concentration for half-maximal inhibition (IC50) in test [2] is 0.0006 µM; in test [3], 0.479 µM; in [4] it was 22.2 µM; in [6] it was 0.495 µM; in test [8], 1.37 µM. In addition, in test [12], the Cell cycle arrest entry is “cell cycle arrest”. For the same molecule, the GI50 in test [5] was found to be 1.3 µM; in [7], 2.4 µM. Besides, the “Accumulation of acetylated alpha-tubulin” value in [10] is recorded as “accumulation of acetylated alpha-tubulin”. Further, the “Inhibition of cell migration, 24 h” value in test [11] is given as “+”. Also, the “Inhibition of cell migration, 48 h” value in test [11] is given as “−”.
